Laboratory results taken from patent US5385885A, “Inhibition of smooth muscle cell proliferation by antistasin and tick anticoagulant peptide” (priority 1991, dated 1995).
“Also recorded” adds a separate entry of the source.

Tests used:
[1] = test system: smooth muscle proliferative responses; settings: doses sufficiently high to prevent platelet adherence and release; Harker et al.; cited from earlier work
[2] = test system: human venous endothelial cells; experiment: Release of mitogens from endothelial cells stimulated with PDGF; conditioned media tested for mitogenic activity on 3T3 cells; assay type: cell-based; settings: PDGF 2 ng/ml, ATS 5 nM, 16 h
Procedure: Confluent primary cultures or subcultures (passages 1 and 2) of human venous endothelial cells were cultured in serum-free Dulbecco's Minimal Essential Medium (DMEM)+0.1% bovine serum albumin (BSA) in the presence of platelet-derived growth factor (PDGF) (2 ng/ml), antistasin (ATS) (5.0-10 nM), or both. Control cultures were untreated or received 2 ng/ml PDGF. After 16 hours incubation at 37° C., conditioned media (CM) from the test and control cell cultures were collected and tested for mitogenic activity (MIT) using confluent NIH 3T3 cells (CCL 163, American Type Culture Collection, Rockville, Md.).
(§1) Primary cultures of EC derived from umbilical cord veins were prepared and grown according to a protocol provided to by Dr. Gwendolyn Stewart (Temple University Thrombosis Center, Phila., Pa.). After washing the lumen of the vein twice with DMEM, EC were dissociated with a solution containing 0.05% trypsin and 0.1% collagenase. Thirty minutes later, the venous content and the perfused DMEM (35 ml) was collected into a fifty ml centrifuge tube containing 3.5 ml of bovine serum and the mixture spun at 900 rpm for 10 minutes. The supernate was discarded and the cell pellet resuspended in 3.0 ml DMEM containing 20% fetal bovine serum (FBS) (heat inactivated at 56° C. for 30 minutes), 90 μg heparin per ml, 5 μg fibronectin per ml, and 60 μg endothelial growth factor per ml (cDMEM), and seeded into 35 mm tissue culture dishes. After 24 hours of incubation at 37 °C, 5% CO2, the culture was washed 3-4 times with DMEM and incubated 2-4 days until the cells were confluent. The monolayers were washed with phosphate buffered saline (PBS) and cultured in DMEM with 0.1% BSA in the presence and absence of 2 ng/ml PDGF, 5 nM antistasin, or a mixture of both. As positive and negative controls, separated monolayers were incubated with the medium plus 2 ng/ml PDGF or with the medium alone. […] The lysate was transferred to vials with scintillation fluid and radioactivity monitored in a beta radiation counter. […]

[3] = test system: human venous endothelial cells; experiment: Release of mitogens from endothelial cells stimulated with factor Xa; conditioned media tested for mitogenic activity on 3T3 cells; assay type: cell-based; settings: 1 unit = activity induced by 2 ng/ml PDGF, FXa 1 nM, ATS 5 nM, PDGF 2 ng/ml, 16 h
Procedure: Confluent primary cultures or subcultures (passages 1 and 2) of human venous endothelial cells (EC) were cultured in serum-free Dulbecco's Minimal Essential Medium (DMEM)+0.1% bovine serum albumin (BSA) in the presence of human or bovine factor Xa(1 nM) (Sigma Chemical Co., St. Louis, Mo.), antistasin (ATS) (0.5-5.0 nM), or both. Control cultures were untreated or received 2 ng/ml platelet-derived growth factor (PDGF) (Sigma Chemical Co., St. Louis, Mo.). After 16 hours incubation at 37° C., the conditioned media (CM) from the test and control cell cultures were collected and tested for mitogenic activity (MIT) using confluent NIH 3T3 cells (CCL 163, American Type Culture Collection, Rockville, Md.).
as §1, with “1 nM factor Xa,” for “2 ng/ml PDGF,”, “alone. After 16 hours of incubation at 37° C., conditioned media (CM) were collected, centrifuged at 4000×g for 10 minutes, and the supernate was collected and stored at 4° C. until use. The mitogenic activity of the CM was tested by measuring the incorporation of [^3 H] thymidine into cultures of Balb 3T3 cells. For this purpose, wells were seeded with 2×10^4 3T3 cells suspended in 1 ml DMEM with 10% FBS. Once confluent (5-7 days of culture), CM were added and cells incubated for 18 hours at 37° C. after which cultures were washed with warm DMEM, tritiated thymidine added (1 μCi/ml) and cells incubated for 4 hours at 37° C.” for “alone.”

Factor VIIa = target: T1, Factor VIIa (Homo sapiens, UniProt P08709); settings: Waxman et al.; cited from earlier work
T1 sequence (P08709 213-466 limits assumed): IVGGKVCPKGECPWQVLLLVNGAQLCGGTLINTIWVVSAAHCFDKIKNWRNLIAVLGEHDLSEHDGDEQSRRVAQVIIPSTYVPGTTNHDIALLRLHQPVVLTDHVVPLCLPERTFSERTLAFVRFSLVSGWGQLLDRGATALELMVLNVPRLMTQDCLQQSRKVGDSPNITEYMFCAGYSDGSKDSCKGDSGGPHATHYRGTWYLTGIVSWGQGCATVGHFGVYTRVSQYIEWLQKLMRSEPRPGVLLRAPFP
T1 sequence (P08709 61-212 partner limits assumed): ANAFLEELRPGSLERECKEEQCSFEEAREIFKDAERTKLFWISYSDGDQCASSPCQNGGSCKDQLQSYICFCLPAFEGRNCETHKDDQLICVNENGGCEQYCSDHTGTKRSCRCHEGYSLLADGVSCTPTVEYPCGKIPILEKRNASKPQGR

thrombin = thrombin (Homo sapiens, UniProt P00734); settings: Waxman et al.; cited from earlier work
chymotrypsin = chymotrypsin (Bos taurus, UniProt P00766); settings: Waxman et al.; cited from earlier work
trypsin = target: T2, trypsin (Bos taurus, UniProt P00760); settings: Waxman et al.; cited from earlier work
T2 construct: gene PRSS1
T2 sequence (P00760 24-246): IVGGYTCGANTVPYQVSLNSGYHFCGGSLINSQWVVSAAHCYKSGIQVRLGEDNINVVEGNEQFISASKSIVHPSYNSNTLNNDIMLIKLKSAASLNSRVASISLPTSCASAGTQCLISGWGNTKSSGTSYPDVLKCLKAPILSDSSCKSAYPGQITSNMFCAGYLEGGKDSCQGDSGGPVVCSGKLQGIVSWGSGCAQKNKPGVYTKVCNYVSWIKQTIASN

kallikrein = settings: Waxman et al.; cited from earlier work
[4] = target: blood coagulation factor Xa (Homo sapiens, UniProt P00742); settings: Waxman et al.; cited from earlier work
smooth muscle cells [5] = experiment: Effect of antistasin and tick anticoagulant peptide on factor Xa induced mitogenesis of smooth muscle cells; assay type: cell-based, rat; settings: FIG. 2
Procedure: Primary smooth muscle cell cultures were prepared from the thoracic and abdominal aorta of 2-3 month old Wistar rats essentially using the procedure of Reilly, C. F. (1990) J. Cell Physiol. 142,342 (1990). After removing as much fat and adherent adventitia as possible with scissors and forceps, the tissue was finely minced, enzymatically dissociated with successive 37° C. incubations in HBSS containing collagenase (Sigma, 0.5 mg/ml for 15 min.), then elastase (Sigma, 0.125 mg/ml for 30 min.) and again collagenase (60 min.). […] Cells were grown in Dulbecco's Minimal Essential Medium (DMEM) containing 10% fetal bovine serum (FBS) with antibiotics. […] Using a monoclonal antibody to alpha actin (Sigma Chemical Company, St. Louis, Mo.), about 60-80% (preparation dependent) of these confluent cells stained positive for this smooth muscle cell marker. After 10 days in culture, the cells were dissociated with trypsinethylene diamine tetraacetate (EDTA), split 1:10 and subcultured in the above medium. At confluence the cells were transferred to DMEM containing 0.1 % FBS for a 24 hour period before using them for assay. […]
(§2) The prepared rat smooth muscle cells were seeded in Falcon 24 multiwell plates (10^5 cells/well) and cultured at 37° C., in a 5% CO2 atmosphere in 1 ml DMEM containing 10% FBS. […] The cells were washed twice with cold phosphate buffered saline (PBS), treated twice with 5% trichloroacetic acid (TCA) for 5 min., dissolved with 0.25N NaOH (0.4 ml) incubated at 37° C. for 60 min., mixed with 5 ml Ecolume (ICN Biomedicals, Costa Mesa, Calif.), and their radioactivity determined in a scintillation counter. […] Smooth muscle cell mitogenic activity produced by exogenous agents is expressed as % relative mitogenic activity which is defined as: [formula] […]
The effects of antistasin and tick anticoagulant peptide on factor Xa induced mitogenesis of smooth muscle cells were tested using the method shown in Example 4. […] At the end of the 24 hour incubation, ^3 H-thymidine incorporation into DNA was monitored and smooth muscle cell mitogenic activity was assessed as described in Example 4.

smooth muscle cells [6] = experiment: Effect of factor Xa inhibitors on human protein S and bovine factor X induced smooth muscle cell mitogenesis; assay type: cell-based, rat; settings: FIG. 3
Procedure: Primary smooth muscle cell cultures were prepared from the thoracic and abdominal aorta of 2-3 month old Wistar rats essentially using the procedure of Reilly, C. F. (1990) J. Cell Physiol. 142,342 (1990). After removing as much fat and adherent adventitia as possible with scissors and forceps, the tissue was finely minced, enzymatically dissociated with successive 37° C. incubations in HBSS containing collagenase (Sigma, 0.5 mg/ml for 15 min.), then elastase (Sigma, 0.125 mg/ml for 30 min.) and again collagenase (60 min.). […] Cells were grown in Dulbecco's Minimal Essential Medium (DMEM) containing 10% fetal bovine serum (FBS) with antibiotics. […]
as §2

Sequence of blood coagulation factor Xa (P00742 235-488 limits assumed): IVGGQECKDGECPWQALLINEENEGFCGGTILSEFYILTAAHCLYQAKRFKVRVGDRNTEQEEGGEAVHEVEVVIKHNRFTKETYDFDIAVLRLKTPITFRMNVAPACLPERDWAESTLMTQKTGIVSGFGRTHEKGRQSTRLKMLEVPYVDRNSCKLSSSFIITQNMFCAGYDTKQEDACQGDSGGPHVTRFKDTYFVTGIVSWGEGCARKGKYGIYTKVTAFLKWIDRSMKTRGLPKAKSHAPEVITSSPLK
Sequence of blood coagulation factor Xa (P00742 41-179 partner limits assumed): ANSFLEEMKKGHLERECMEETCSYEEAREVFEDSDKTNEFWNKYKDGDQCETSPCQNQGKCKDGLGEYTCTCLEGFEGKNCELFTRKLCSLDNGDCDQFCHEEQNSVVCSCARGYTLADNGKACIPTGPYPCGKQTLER

OCCN(CCO)c1nc(N2CCCCC2)c2nc(N(CCO)CCO)nc(N3CCCCC3)c2n1 [dipyridamole]
Smooth muscle proliferative responses [1]: prevented

PDGF [reference compound]
Mitogenic units of EC conditioned media ([2]; EXP 1): 1.00 mitogenic units
Mitogenic units of EC conditioned media ([2]; EXP 2): 1.00 mitogenic units
Mitogenic units of EC conditioned media ([2]; EXP 3): 1.00 mitogenic units
Mitogenic units of EC conditioned media ([3]; EXP 1): 1.00 mitogenic units
Mitogenic units of EC conditioned media ([3]; EXP 2): 1.00 mitogenic units
Mitogenic units of EC conditioned media ([3]; EXP 3): 1.00 mitogenic units
Mitogenic units of EC conditioned media ([3]; EXP 4): 1.00 mitogenic units

tick anticoagulant peptide (YNRLCIKPRDWIDECDSNEGGERAYFRNGKGGCDSFWICPEDHTGADYYSSYRDCFNACI; UniProt P17726 1-60, looked up) [TAP, 60-amino acid peptide isolated from extracts of the soft tick Ornithodoros moubata]
Effect on Factor VIIa (Factor VIIa): no effect
Effect on thrombin (thrombin): no effect
Effect on chymotrypsin (chymotrypsin): no effect
Effect on trypsin (trypsin): no effect
Effect on kallikrein (kallikrein): no effect
Inhibition of blood factor Xa [4]: highly specific inhibitor; also recorded: potent inhibitor
Relative mitogenic activity above control (smooth muscle cells [5]; 10 nM fXa and 3-25 nM TAP): about 25%
Relative mitogenic activity above control (smooth muscle cells [5]; 10 nM fXa and 50-62 nM TAP): about 9%
Relative mitogenic activity above control (smooth muscle cells [5]; 10 nM fXa with 100-250 nM TAP): near zero
Inhibition of relative mitogenic activity of bovine factor X (smooth muscle cells [6]; 10 nM bovine factor X with 100 nM TAP): not significantly inhibited
Inhibition of relative mitogenic activity of protein S (smooth muscle cells [6]; protein S with 250 nM TAP): abolished
